Tests used:
[1] = molecular target: Myosin light chain kinase, smooth muscle (Homo sapiens, UniProt Q15746); test: Selectivity interaction (Kinase panel (Invitrogen, enzymatic assay)) EUB0000162b MYLK
[2] = molecular target: Serine/threonine-protein kinase MARK2 (Homo sapiens) (UniProt Q7KZI7); test: Selectivity interaction (KinomeScan (DiscoverX)) EUB0000666a MARK2; settings: at 10 µM
[3] = molecular target: Epithelial discoidin domain-containing receptor 1 (Homo sapiens) (UniProt Q08345); test: Selectivity interaction (KinomeScan (DiscoverX)) EUB0000229b DDR1; settings: at 10 µM
Chain of Epithelial discoidin domain-containing receptor 1 (Homo sapiens) (Q08345 whole entry, the tested form may be a part): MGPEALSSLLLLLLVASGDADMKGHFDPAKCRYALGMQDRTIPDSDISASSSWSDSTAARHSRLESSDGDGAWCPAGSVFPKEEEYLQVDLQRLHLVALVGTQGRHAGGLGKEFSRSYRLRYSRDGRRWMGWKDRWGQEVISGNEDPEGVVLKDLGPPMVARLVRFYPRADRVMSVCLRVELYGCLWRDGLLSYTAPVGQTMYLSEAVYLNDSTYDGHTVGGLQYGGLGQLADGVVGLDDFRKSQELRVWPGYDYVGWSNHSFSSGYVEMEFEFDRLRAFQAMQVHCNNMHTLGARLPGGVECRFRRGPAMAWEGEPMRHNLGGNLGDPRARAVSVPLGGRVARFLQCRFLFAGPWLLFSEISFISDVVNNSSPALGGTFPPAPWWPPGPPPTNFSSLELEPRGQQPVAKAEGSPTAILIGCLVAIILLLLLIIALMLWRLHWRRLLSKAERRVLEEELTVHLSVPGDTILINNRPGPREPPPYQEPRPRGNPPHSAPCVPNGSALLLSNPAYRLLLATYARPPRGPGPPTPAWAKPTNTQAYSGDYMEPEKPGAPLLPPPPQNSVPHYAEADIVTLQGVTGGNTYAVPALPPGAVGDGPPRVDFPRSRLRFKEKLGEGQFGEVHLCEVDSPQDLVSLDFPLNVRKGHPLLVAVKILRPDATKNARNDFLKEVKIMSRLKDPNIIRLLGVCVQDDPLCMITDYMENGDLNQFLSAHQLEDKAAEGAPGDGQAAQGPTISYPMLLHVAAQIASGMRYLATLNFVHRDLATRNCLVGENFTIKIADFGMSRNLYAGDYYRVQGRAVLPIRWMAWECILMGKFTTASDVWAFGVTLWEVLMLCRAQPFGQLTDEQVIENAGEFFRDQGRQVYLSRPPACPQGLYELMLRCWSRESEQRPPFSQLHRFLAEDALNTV

[4] = molecular target: cGMP-inhibited 3',5'-cyclic phosphodiesterase 3A (Homo sapiens, UniProt Q14432); test: Selectivity interaction (Eurofins safety panel) EUB0001564a PDE3A; settings: at 10 µM
[5] = molecular target: Serine/threonine-protein kinase N1 (Homo sapiens, UniProt Q16512); test: Selectivity interaction (KinomeScan (DiscoverX)) EUB0000595a PKN1; settings: at 10 µM
Chain of Serine/threonine-protein kinase N1 (Q16512 2-942 limits assumed): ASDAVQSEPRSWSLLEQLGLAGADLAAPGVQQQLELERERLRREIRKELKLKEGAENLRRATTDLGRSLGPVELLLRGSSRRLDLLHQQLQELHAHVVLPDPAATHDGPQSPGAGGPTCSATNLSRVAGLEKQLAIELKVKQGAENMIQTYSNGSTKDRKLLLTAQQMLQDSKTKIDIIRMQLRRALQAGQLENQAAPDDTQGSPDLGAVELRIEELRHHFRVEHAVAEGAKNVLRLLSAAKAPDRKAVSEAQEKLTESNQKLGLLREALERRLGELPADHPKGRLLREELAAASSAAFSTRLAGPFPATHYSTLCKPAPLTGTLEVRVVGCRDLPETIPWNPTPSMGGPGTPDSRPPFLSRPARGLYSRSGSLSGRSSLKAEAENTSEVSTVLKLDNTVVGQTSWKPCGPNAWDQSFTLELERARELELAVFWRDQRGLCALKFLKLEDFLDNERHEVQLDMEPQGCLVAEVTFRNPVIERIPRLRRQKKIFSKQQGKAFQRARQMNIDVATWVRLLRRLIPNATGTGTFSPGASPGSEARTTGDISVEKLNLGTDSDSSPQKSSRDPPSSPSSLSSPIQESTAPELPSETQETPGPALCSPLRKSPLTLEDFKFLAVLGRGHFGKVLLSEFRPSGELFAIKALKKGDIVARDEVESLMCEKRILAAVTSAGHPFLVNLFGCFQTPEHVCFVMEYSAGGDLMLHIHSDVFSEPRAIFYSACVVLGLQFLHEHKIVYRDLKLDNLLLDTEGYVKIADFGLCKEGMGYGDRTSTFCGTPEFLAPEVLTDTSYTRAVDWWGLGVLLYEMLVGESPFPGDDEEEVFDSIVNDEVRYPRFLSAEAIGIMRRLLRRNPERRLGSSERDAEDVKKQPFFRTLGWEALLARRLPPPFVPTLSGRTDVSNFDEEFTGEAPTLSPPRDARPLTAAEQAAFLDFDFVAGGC

[6] = molecular target: T1, Serine/threonine-protein kinase 36 (Homo sapiens) (UniProt Q9NRP7); test: Selectivity interaction (KinomeScan (DiscoverX)) EUB0000045b STK36
T1 sequence (whole entry): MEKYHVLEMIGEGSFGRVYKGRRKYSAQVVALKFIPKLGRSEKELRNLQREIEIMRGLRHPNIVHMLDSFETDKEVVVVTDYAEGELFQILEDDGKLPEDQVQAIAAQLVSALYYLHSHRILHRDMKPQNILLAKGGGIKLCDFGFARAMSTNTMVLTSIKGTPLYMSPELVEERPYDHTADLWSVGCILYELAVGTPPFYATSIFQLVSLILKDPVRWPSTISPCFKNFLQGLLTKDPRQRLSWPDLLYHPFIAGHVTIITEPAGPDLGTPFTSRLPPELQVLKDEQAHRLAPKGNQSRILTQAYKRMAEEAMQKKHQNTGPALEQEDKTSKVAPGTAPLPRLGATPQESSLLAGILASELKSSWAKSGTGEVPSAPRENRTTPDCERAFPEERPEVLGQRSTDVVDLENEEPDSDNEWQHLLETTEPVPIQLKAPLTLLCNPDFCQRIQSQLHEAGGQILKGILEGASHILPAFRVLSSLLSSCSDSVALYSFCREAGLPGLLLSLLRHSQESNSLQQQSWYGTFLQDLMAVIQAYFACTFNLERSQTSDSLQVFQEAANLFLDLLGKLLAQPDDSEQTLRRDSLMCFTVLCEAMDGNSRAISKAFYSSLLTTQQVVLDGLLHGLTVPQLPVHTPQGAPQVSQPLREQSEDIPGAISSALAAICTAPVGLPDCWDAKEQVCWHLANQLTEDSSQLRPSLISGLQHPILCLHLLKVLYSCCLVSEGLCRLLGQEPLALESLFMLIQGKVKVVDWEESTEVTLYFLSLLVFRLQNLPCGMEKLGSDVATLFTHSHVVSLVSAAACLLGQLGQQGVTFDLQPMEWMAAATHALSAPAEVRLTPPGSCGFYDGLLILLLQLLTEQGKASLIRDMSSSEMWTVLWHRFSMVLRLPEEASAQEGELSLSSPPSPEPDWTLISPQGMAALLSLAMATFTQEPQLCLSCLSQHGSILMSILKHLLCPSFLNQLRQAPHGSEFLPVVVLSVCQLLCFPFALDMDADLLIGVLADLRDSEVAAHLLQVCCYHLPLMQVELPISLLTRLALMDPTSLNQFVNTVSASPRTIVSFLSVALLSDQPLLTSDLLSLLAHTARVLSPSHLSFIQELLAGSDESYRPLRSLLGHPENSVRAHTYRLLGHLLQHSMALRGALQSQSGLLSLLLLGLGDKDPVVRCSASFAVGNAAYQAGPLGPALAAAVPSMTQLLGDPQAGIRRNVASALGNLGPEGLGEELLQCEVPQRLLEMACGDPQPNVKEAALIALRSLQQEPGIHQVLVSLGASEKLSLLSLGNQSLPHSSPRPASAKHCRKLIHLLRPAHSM

[7] = molecular target: Citron Rho-interacting kinase (Homo sapiens) (UniProt O14578); test: Selectivity interaction (KinomeScan (DiscoverX)) EUB0000618a CIT; settings: at 10 µM
[8] = molecular target: T2, 3-phosphoinositide-dependent protein kinase 1 (Homo sapiens) (UniProt O15530); test: Selectivity interaction (KinomeScan (DiscoverX)) EUB0001619a PDPK1; settings: at 1 µM
T2 sequence (whole entry): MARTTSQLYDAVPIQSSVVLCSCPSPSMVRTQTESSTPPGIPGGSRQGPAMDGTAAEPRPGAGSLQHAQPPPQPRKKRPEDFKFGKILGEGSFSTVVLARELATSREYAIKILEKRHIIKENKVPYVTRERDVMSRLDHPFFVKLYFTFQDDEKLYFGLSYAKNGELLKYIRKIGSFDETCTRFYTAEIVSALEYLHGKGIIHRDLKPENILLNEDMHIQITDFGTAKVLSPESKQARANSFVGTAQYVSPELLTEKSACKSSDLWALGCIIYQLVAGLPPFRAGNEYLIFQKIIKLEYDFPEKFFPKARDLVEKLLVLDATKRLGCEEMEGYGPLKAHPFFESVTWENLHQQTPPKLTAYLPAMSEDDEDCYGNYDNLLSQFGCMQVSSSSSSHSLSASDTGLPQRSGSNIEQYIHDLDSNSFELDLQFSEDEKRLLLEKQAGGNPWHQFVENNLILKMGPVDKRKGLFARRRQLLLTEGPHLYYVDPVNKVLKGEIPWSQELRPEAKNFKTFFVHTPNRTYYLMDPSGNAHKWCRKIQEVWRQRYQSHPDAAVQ

[9] = molecular target: Tyrosine-protein kinase Fgr (Homo sapiens) (UniProt P09769); test: Selectivity interaction (Kinase panel (Z-LYTE Assay)) EUB0001632a FGR; settings: at 10 µM
Chain of Tyrosine-protein kinase Fgr (Homo sapiens) (P09769 2-529 limits assumed): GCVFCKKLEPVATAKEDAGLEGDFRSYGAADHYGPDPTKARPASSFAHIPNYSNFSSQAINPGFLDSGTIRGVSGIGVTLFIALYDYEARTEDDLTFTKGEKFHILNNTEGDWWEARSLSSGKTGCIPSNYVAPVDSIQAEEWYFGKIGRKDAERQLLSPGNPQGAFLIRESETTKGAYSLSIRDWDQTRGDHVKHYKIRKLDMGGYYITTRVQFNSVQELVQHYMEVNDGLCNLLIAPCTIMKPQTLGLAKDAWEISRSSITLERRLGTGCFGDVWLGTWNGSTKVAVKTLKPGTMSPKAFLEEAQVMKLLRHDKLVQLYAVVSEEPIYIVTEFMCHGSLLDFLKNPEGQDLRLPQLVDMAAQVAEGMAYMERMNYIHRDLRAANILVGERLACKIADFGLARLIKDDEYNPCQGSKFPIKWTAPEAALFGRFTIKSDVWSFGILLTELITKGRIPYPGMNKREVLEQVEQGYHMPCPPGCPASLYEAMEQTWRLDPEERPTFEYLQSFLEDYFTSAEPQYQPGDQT

Chain of Myosin light chain kinase, smooth muscle (Q15746 whole entry): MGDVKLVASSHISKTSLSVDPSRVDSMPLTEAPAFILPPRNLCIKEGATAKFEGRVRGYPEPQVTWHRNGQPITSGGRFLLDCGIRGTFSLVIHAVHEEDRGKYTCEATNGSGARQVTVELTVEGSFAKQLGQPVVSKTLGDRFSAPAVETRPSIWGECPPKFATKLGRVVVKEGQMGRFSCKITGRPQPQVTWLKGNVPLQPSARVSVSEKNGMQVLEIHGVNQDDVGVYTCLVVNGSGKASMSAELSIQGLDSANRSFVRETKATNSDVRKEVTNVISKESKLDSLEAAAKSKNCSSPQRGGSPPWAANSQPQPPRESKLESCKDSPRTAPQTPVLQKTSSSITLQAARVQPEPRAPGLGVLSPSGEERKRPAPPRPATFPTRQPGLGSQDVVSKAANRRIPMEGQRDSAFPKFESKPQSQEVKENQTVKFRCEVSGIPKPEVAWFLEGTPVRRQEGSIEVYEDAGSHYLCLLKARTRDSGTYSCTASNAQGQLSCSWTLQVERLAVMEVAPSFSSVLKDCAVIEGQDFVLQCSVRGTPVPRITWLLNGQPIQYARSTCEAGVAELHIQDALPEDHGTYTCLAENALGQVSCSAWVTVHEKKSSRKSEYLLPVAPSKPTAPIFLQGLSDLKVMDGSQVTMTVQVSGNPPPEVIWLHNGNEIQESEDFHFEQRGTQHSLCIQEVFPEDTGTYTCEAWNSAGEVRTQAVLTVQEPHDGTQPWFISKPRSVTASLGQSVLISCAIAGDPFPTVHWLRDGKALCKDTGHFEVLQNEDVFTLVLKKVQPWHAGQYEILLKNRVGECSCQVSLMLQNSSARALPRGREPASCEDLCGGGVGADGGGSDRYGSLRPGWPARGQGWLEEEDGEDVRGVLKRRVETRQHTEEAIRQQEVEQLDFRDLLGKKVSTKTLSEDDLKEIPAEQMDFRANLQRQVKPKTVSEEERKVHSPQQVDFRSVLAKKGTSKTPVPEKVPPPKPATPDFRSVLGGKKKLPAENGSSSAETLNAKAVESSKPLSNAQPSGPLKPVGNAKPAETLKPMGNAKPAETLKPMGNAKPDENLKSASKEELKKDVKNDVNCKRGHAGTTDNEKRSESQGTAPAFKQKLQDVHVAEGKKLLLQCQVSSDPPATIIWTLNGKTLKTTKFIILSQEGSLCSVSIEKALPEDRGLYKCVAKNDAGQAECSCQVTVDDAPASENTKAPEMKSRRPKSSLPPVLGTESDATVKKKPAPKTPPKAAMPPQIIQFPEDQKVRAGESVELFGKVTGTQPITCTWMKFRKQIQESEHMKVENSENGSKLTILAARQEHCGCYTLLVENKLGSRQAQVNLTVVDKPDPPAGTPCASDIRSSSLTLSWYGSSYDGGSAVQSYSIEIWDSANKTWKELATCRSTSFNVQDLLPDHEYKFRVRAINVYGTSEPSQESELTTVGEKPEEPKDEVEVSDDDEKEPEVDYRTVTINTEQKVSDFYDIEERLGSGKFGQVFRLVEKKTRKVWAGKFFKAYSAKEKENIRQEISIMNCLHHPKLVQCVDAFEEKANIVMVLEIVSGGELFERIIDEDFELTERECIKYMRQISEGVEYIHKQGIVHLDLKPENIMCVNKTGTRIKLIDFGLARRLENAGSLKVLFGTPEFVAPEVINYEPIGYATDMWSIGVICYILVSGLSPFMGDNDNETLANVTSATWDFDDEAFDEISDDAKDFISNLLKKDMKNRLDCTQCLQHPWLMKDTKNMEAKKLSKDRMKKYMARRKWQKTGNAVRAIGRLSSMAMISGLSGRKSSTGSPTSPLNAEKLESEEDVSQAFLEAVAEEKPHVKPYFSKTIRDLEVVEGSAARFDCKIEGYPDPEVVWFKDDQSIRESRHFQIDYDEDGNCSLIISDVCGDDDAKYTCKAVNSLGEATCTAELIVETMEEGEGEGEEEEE
Chain of Serine/threonine-protein kinase MARK2 (Homo sapiens) (Q7KZI7 whole entry, the tested form may be a part): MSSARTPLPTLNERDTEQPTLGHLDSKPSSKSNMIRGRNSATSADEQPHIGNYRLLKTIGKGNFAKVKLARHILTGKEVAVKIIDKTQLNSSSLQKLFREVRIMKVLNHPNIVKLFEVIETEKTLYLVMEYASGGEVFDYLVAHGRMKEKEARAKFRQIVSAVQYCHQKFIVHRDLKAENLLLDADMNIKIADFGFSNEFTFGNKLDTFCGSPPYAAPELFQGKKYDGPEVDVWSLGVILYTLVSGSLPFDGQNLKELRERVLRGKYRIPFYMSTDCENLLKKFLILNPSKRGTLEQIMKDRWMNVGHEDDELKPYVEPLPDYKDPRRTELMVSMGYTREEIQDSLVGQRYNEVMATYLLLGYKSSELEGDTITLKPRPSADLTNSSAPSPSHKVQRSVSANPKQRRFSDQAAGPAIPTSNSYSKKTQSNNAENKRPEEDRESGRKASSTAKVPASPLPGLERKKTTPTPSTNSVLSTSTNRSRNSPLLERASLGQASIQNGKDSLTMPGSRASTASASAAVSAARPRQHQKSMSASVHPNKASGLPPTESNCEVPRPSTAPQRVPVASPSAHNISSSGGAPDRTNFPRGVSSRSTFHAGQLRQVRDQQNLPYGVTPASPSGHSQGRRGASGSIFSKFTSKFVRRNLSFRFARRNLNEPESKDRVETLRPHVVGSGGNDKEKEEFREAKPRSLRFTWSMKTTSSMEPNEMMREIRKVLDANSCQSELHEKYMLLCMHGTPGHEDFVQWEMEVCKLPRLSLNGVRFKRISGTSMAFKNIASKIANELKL

CN(C)C(=O)Cn1cc(-c2ccc(-c3cncc4ccccc34)cc2)cn1
IC50 [1]: 531 nM

O=C(NOC[C@H](O)CO)c1ccc(F)c(F)c1Nc1ccc(I)cc1F
% of control [2]: 100%

COc1cc(N(C)c2ccnc3ccc(C(F)(F)F)cc23)cc(OC)c1OC
% binding [3]: 78%

CC[C@@H](Nc1c(C#N)c(-c2ccc(-c3cccc(C)c3F)cc2)nc2cnccc12)C(=O)O [BAY-091]
% of inhibition [4]: 74%

COCC(=O)NC/C=C/c1ccc2ncnc(Nc3ccc(Oc4ccc(C)nc4)c(C)c3)c2c1 [CP-724714]
% of control [5]: 100%

C=CC(=O)Nc1cc(-n2c(=O)ccc3cnc4ccc(-c5ccc(NS(C)(=O)=O)cc5)cc4c32)ccc1C
% of control ([6]; at 1 µM): 100% | % of control ([6]; at 10 µM): 100%

O[C@H]1CC[C@H](Nc2ncc3nc(Nc4c(F)cc(F)cc4F)n([C@H]4CCOC4)c3n2)CC1
% of control [7]: 96%

N#Cc1cccc(-c2c[nH]c3ncnc(N4CCOCC4)c23)c1
% of control [8]: 100%

Cn1cc(-n2cnc3c(NCc4nc5cc(Cl)c(Cl)cc5[nH]4)nc(N4CCOCC4)nc32)cn1
% of control [9]: 1.86%
